In patent publication US11077196B2, “Abuse-deterrent pharmaceutical composition” (priority 2016, dated 2021):
Entries after “also recorded” stand apart in the source; their conditions may differ.

What was measured:
[1] = system: Humicola insolens cutinase (HiC); format: biochemical
[2] = biological target: T1, Thermobifida cellulosilytica cutinase 1 (THC) (Thermobifida cellulosilytica, UniProt E9LVH8); format: biochemical
T1 construct: made in house
T1 sequence (E9LVH8 1-262): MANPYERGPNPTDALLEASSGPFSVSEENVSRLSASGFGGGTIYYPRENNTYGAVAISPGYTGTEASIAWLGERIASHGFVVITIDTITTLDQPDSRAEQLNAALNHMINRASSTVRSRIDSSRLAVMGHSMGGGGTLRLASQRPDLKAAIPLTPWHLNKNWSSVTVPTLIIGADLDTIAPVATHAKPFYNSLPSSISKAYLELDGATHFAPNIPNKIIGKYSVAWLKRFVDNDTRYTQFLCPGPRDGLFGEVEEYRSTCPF

pepsin = biological target: T2, pepsin (Sus scrofa, UniProt P00791); assay: Pepsin digestion assay in simulated gastric fluid with SDS-PAGE analysis; format: in vitro ADME; details: SGF pH 1.2 with pepsin, 10000 Units pepsin per 1 mg test protein, 37° C., samples at 0, 0.5, 15 minutes
T2 construct: purchased Sigma-Aldrich (US) P7000
Description: SGF contains 0.084 M HCl, 0.035 M NaCl, 4000 U of pepsin per reaction mixture and has a pH level of 1.2 according to the United States Pharmacopeia (1995). A ratio of 10000 Units of pepsin activity to 1 mg of test protein was used throughout the assay, which is based on an evaluation of the average activity of pepsin recommended in the United States Pharmacopeia (24th edition, 2000) with some modifications. Pepsin (ref. #P7000) was purchased from Sigma-Aldrich (US). All proteins that were used were dissolved in 50 mM Tris-HCl (pH 9.5) at a concentration of 5 mg mL^−1. The reaction mixture contained 1.52 mL of SGF preheated to 37° C. before the addition of 0.08 mL of protein solution (Thomas et al., 2004). The mixture was placed into a thermomixer at 37° C. and was shaken at 400 rpm. For denaturating SDS-polyacrylamide gel electrophoresis analysis (SDS-PAGE) samples of 160 μl were removed at 0 minutes, 0.5 minutes, and 15 minutes after initiation.
SDS-PAGE was performed to analyze and visually inspect stained protein bands whether the protein band is still intact or fragmented after the digestion assay. […]
Each 160 μl of the digestion samples was quenched by adding 56 μl of 200 mM NaHCO3 as neutralization step and 56 μl 4× Laemmli (Laemmli 1970) buffer for electrophoresis. Samples were immediately heated up to 99° C. for 10 minutes and analyzed directly or stored at −20° C. […]

laccase [3] = assay: LMS and methadone: oxygen measurements; format: biochemical
[4] = system: laccase from Myceliophthora thermophila (MtL); assay: Oxygen measurement of laccase catalysed oxidation of opioids (MtL); format: biochemical; details: MtL 10 U/ml, substrate 2 mg/ml, distilled water, room temperature, optical oxygen sensor
Source text: (§1) Two different laccases were used to achieve elimination of opioids—one of them originated from Trametes villosa (TvL), the other one from Myceliophthora thermophila (MtL).

[5] = system: horseradish peroxidase and a laccase originating from Myceliophthora thermophila (MtL); assay: Inactivation of oxycodone with an enzyme system consisting of peroxidase/laccase; format: biochemical; details: HRP 10 U/ml, Glucose Oxidase 20 U/ml, Laccase 25 U/ml, Oxycodone 10 mg/ml, Glucose 10 mg/ml, distilled water, room temperature
Source text: In the present example, the development of an appropriate enzyme system to eliminate opioids from solution can be shown. A peroxidase is used to produce an hydroxyl group in oxycodone while the such “activated” molecule is further transformed by the laccase. Moreover, optimized reaction conditions for effective conversion of the opioid solution preventing administration through injection are provided. Finally, the function of the system is verified by showing the inactivation of the opioid destroying enzymes proteolytically when the drugs are administered as foreseen.
To achieve the elimination of oxycodone, the following enzymes are used: the horseradish peroxidase and a laccase originating from Myceliophthora thermophila (MtL). Glucose Oxidase (GOD, from Aspergillus niger) is used to generate H2O2 which is required for the peroxidase reaction.
To determine whether the laccase act on activated oxycodone an optical oxygen sensor is used. Laccases use oxygen as electron acceptor, consequently the oxygen concentration decreases upon substrate oxidation.
500 μL samples are taken and put into 500 μL of methanol (MeOH) to precipitate the enzyme. The solution is centrifuged using Vivaspin 500 and transferred to an HPLC vial.

[6] = system: laccase from Trametes villosa (TvL); assay: Oxygen measurement of laccase catalysed oxidation of opioids (TvL); format: biochemical; details: TvL 10 U/ml, substrate 2 mg/ml, distilled water, room temperature, optical oxygen sensor
Source text: as §1

laccase [7] = assay: Laccase mediator system (LMS) and oxycodone: oxygen concentration measurement; format: biochemical; details: 10 units laccase ml−1, 1000 mgL−1 oxycodone; for oxygen concentration after the addition of oxycodone, per mediator: mediator 2 mM
Description: During the reaction oxygen acts as electron acceptor and is reduced to water by laccases while the mediators are oxidized. The concentration of oxygen was measured as described above. Oxygen is consumed until the mediator is fully oxidized. […] The second step of the reaction is initiated by addition of the target substrate, which is consequently oxidized by the mediators.
In the present experiments the final reaction mixtures contained 0.2 to 6 mM mediator, 1-10 units of laccase per ml and 100-3000 mg L^−1 opioid.
The different mediators were used at concentrations of 2 mM with 10 units laccase ml^−1 and 1000 mgL^−1 oxycodone. The first drop in oxygen concentration represents the oxidation of the respective mediators with the laccase, the second drop—which took place just after the addition of the opioid—was due to the subsequent oxidation of the opioid.

laccase [8] = assay: LMS and oxycodone: HPLC-MS/TOF measurements; details: laccase mediator system
laccase [9] = assay: Thin layer chromatography of enzymatic conversion; format: biochemical; details: samples at 2, 10, 30, 60, 120 minutes of enzymatic reaction
laccase MTL = assay: Polymerization of morphine with laccase from Myceliophthora thermophila (high concentrations); details: 50 mM sodium phosphate buffer pH 7, MTL 10 U to 100 U

T2 sequence (P00791 60-385): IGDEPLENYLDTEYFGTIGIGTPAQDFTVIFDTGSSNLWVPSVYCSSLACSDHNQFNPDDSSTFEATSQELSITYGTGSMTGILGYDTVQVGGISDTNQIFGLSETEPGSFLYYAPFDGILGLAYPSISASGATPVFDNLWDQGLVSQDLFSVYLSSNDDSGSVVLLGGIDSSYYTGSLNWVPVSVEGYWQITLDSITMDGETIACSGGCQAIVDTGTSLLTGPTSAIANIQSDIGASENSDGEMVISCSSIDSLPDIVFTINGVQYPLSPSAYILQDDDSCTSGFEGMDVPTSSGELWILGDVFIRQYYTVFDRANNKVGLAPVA

CC(=O)Oc1ccc2c3c1O[C@H]1[C@@H](OC(C)=O)C=C[C@H]4[C@@H](C2)N(C)CC[C@@]341 [diacetylmorphine]
DAM concentration [1]: declines | morphine concentration formed from DAM [1]: only increased in the samples that were incubated at 50 °C | product formed from DAM at lower temperatures [1]: only monoacetylmorphine is produced | diacetylmorphine hydrolyzed (total acetate yield, HPLC/RI) ([1]; pH 7): more than 50% | DAM concentration [2]: declines | morphine concentration formed from DAM [2]: only increased in the samples that were incubated at 50 °C | product formed from DAM at lower temperatures [2]: only monoacetylmorphine is produced | diacetylmorphine hydrolyzed (total acetate yield, HPLC/RI) ([2]; pH 7): more than 50%

HRP: horse radish peroxidase
proteolytic degradation of the enzyme (protein band on SDS-PAGE) (pepsin): very susceptible to proteolytic degradation

CCC(=O)C(CC(C)N(C)C)(c1ccccc1)c1ccccc1 (racemic) [methadone, (±)-6-dimethylamino-4,4-diphenol-3-heptanone]
oxygen concentration in LMS with methadone (laccase [3]; mediator ABTS): decline in oxygen concentration

COc1ccc2c3c1O[C@H]1C(=O)CC[C@@]4(O)[C@@H](C2)N(C)CC[C@]314 [oxycodone, 4,5[alpha]-epoxy-14-hydroxy-3-methoxy-17-methyl-6-morphinanone]
oxygen concentration in solution (laccase oxidation of the opioid) [4]: not capable of converting oxycodone | enzymatic conversion of oxycodone (oxygen consumption measurements, HPLC-MS) [5]: successfully converted; also recorded: converted to a product which precipitated | oxygen concentration in solution (laccase oxidation of the opioid) [6]: not capable of converting oxycodone | oxidation of oxycodone in the laccase mediator system (laccase [7]; mediators vanillin, ethylvanillin, syringic acid 2 mM): oxidation of oxycodone | oxycodone concentration (HPLC-MS/TOF) (laccase [8]; mediators 2 mM, vanillin also 6 mM): decrease in oxycodone concentration

CCOc1cc(C=O)ccc1O [ethylvanillin]
oxygen concentration after the addition of oxycodone, per mediator (laccase [7]): showed a drop in oxygen concentration

CCn1c(=NN=c2sc3cc(S(=O)(=O)O)ccc3n2CC)sc2cc(S(=O)(=O)O)ccc21 [ABTS, 2,2′-azino-bis-(3-ethylbenzthiazoline-6-sulfonic acid)]
effect of the mediator in LMS with methadone (oxygen measurement) (laccase [3]; mediators tested incl. syringic acid, TEMPO, syringol, ABTS): best effect

CN1CC[C@]23c4c5ccc(O)c4O[C@H]2[C@@H](O)C=C[C@H]3[C@H]1C5 [morphine, 4,5[alpha]-epoxy-17-methyl-7-morphinen-3,6[alpha]-diol]
time after which new dots appear on the TLC plate (new product formed) (laccase [9]): 2 min | faster degradation of morphine with 10 times more laccase (laccase MTL): ~10 times

COc1cc(C=O)ccc1O [vanillin]
oxygen concentration after the addition of oxycodone, per mediator (laccase [7]): showed a drop in oxygen concentration

O=C(O)c1cc(O)c(O)c(O)c1 [gallic acid]
oxygen concentration after the addition of oxycodone, per mediator (laccase [7]): no apparent effect | effect of the mediator on oxycodone (MS-TOF analysis) (laccase [8]): no apparent effect

COc1cc(C(=O)O)cc(OC)c1O [syringic acid]
oxygen concentration after the addition of oxycodone, per mediator (laccase [7]): showed a drop in oxygen concentration

CC[C@@H](c1cccc(O)c1)[C@@H](C)CN(C)C [tapentadol]
oxygen concentration in solution (laccase oxidation of the opioid) [4]: much slower | oxygen concentration in solution (laccase oxidation of the opioid) [6]: drops to almost 0% oxygen | time after which new dots appear on the TLC plate (new product formed) (laccase [9]): 2 min | time after which the reference dot disappears on TLC (all converted) (laccase [9]): 120 min
